One experiment has as its target T1, CtBP2-p300 interaction (Mus musculus, UniProt B2RWS6+P56546).
T1 construct: In vivo immunoprecipitation with anti-CtBP2-coated protein G beads in MPAEpiC cells; endogenous in cells; host or cells: MPAEpiC (mouse pulmonary alveolar epithelial cells)
The experiment can be described thus: Immunoprecipitation with anti-CtBP2 in MPAEpiC cells co-treated with LPS and PNSC928. Format: cell-based. As to conditions: LPS + PNSC928 0, 11.8, 23.6, and 47.2 µM, 6 h. The procedure: For LPS treatment, different knockdown (KD) cell lines—Control^KD, CtBP2^KD, p300^KD, and p65^KD, all derived from MPAEpiC—were seeded in 12-well plates and cultured at 37 °C until reaching 80% confluence. The cells were then treated with 200 ng/mL of LPS for 6 h, washed three times with PBS, and subjected to the required experiments. For experiments involving inhibitors of CtBP2, p300, and NF-κB, as well as the compound PNSC928, MPAEpiC, RAW264.7, FL83B, TKPTS, and HL-1 cells were seeded in 12-well plates and cultured at 37 °C to reach 80% confluence. Cells were then cotreated with 200 ng/mL LPS along with varying concentrations of the following chemicals: MTOB (0, 5, 10, or 20 mM), NSC95397 (0, 10, 20, or 40 µM), C646 (0, 3, 6, or 12 µM), A-485 (0, 5, 10, or 20 nM), TPCA1 (0, 150, 300, or 600 nM), BOT64 (0, 1, 2, or 4 µM), or PNSC928 (0, 11.8, 23.6, or 47.2 µM). After 6 h of treatment, cells were washed three times with PBS before proceeding with further experiments. […]
To probe this interaction, we established an AlphaScreen system that utilized GST-p300^BRD and His-CtBP2, binding to donor and acceptor beads, respectively (Fig. 4C). […] In vitro assays assessed the effects of PNSC928 on the CtBP2-p300^BRD interaction. […] Furthermore, we assessed the impact of combined LPS and PNSC928 treatment on the expression of key molecules in the NF-κB signaling pathway.

In the next experiment the test system is RAW264.7 cells. Nature of the experiment: RT-qPCR of CtBP2/p300/NF-κB target genes in LPS-treated RAW264.7 cells (PNSC928). Format: cell-based, mouse. The settings on record: LPS + PNSC928 23.6 and 47.2 µM, 6 h. Here is the method:
For LPS treatment, different knockdown (KD) cell lines—Control^KD, CtBP2^KD, p300^KD, and p65^KD, all derived from MPAEpiC—were seeded in 12-well plates and cultured at 37 °C until reaching 80% confluence. The cells were then treated with 200 ng/mL of LPS for 6 h, washed three times with PBS, and subjected to the required experiments. For experiments involving inhibitors of CtBP2, p300, and NF-κB, as well as the compound PNSC928, MPAEpiC, RAW264.7, FL83B, TKPTS, and HL-1 cells were seeded in 12-well plates and cultured at 37 °C to reach 80% confluence. […]
RNA was isolated from both cultured cells and mouse lung tissues utilizing the TRIzol Reagent (Invitrogen; Shanghai, China; #15,596,018) in adherence to the manufacturer’s protocol. […] Gene expression quantification was carried out using the SYBR GreenER qPCR SuperMix Universal (Thermo Fisher; #1176202K) in combination with the specific primers delineated in Table S3. […]
Fig. 5 Determination of PNSC928 cytotoxicity and evaluation of PNSC928 effects on the expression levels of CtBP2/p300/NF-κB target genes. […] Cell viability was assessed every 24 h for 5 days. […] Subsequently, RNA isolation and RT-qPCR analysis were performed to quantify mRNA levels of various genes. […]

T1 sequence (P56546 whole entry): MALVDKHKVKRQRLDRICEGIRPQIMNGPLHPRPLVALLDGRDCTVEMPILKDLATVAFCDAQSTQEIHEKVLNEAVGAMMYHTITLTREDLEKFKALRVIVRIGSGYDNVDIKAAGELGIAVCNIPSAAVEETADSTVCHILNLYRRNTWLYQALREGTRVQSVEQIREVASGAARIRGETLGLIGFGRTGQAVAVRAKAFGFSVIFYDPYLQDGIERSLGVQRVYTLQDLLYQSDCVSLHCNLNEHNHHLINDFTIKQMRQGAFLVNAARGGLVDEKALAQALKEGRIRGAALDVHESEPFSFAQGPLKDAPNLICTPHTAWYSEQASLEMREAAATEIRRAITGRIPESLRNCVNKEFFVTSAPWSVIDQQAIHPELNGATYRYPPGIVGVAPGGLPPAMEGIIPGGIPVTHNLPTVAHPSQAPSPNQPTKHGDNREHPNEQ
T1 sequence (B2RWS6 whole entry): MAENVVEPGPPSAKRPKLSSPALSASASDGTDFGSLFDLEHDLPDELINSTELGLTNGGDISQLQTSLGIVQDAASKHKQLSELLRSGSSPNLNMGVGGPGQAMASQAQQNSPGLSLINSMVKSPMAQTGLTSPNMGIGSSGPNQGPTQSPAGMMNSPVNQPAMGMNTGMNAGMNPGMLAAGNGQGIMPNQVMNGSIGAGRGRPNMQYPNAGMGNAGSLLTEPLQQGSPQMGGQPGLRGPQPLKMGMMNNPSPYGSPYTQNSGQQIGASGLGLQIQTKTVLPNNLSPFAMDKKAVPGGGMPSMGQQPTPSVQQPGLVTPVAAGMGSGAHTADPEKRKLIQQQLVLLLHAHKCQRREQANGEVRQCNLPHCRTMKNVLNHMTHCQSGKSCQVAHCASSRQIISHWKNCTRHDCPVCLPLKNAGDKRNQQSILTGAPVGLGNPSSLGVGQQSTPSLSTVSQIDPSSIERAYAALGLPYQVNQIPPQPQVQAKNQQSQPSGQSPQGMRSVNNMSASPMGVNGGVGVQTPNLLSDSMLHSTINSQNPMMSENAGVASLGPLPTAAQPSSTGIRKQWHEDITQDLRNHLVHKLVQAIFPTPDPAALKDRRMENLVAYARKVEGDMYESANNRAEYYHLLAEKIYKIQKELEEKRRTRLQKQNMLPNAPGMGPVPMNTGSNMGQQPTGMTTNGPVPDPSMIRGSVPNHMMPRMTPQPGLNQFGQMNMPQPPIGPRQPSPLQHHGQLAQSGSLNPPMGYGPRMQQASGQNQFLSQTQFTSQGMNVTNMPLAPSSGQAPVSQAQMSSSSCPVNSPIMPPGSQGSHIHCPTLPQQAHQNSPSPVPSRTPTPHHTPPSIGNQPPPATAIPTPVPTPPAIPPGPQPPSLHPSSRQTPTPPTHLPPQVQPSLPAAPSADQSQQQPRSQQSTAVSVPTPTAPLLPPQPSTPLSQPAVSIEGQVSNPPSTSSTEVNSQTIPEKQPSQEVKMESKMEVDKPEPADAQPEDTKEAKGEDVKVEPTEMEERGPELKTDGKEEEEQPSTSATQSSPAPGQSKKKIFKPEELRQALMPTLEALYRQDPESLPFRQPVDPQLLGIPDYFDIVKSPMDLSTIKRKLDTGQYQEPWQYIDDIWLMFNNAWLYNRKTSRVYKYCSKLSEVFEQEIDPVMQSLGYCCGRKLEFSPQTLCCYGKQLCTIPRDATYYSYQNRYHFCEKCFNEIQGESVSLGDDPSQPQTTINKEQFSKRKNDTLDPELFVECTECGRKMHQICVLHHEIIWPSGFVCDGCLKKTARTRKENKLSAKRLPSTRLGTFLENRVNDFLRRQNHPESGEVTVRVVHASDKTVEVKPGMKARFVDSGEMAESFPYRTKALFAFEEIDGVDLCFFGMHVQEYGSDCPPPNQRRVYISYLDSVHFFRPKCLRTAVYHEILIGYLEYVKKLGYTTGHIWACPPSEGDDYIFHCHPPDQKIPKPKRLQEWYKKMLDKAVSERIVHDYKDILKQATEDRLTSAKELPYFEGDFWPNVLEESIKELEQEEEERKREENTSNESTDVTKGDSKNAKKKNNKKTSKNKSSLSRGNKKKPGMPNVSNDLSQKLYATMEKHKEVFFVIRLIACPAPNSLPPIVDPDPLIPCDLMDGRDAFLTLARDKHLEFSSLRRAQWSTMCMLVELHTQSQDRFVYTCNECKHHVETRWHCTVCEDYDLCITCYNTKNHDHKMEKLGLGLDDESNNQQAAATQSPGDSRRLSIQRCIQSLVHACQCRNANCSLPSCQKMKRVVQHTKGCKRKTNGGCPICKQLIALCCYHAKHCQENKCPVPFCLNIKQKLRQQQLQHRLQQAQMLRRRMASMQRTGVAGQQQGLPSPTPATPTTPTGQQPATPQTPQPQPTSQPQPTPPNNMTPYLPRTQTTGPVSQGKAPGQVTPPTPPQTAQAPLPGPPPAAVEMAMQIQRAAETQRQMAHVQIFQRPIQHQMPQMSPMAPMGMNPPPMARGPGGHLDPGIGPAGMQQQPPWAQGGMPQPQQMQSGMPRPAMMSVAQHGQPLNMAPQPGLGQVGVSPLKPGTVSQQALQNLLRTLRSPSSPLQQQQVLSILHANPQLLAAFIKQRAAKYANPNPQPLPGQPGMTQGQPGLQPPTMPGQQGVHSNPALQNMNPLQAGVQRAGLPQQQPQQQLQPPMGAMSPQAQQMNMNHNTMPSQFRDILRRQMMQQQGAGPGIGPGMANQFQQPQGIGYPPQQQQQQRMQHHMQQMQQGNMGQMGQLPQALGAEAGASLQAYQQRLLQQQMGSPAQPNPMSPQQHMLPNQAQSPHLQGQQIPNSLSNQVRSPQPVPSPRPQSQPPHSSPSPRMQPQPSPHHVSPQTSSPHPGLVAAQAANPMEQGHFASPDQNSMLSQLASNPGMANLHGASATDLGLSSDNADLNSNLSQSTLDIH

As to `CC(=CCCC1=CCC(C2COC(=O)C2)OC1O)CCC1=C(C)CCCC1(C)C` (stereo not drawn) [PNSC928], on CtBP2-p300 interaction, the “p300^BRD levels pulled down by CtBP2” value is given as “dose-dependent decrease”. Besides, in the experiment with RAW264.7 cells, the “Expression levels of CDH1, CDKN1A, CDKN2A, CHRD, PAX6, BAX, NOD2, CCL2, CXCL10, CXCL12, MMP1, STAT1, MIP2, CCR5, GM-CSF, VEGF, COX2, and iNOS” value was “did not alter the expression levels”; the “LPS-induced IL-1B, IL-6, IL-15, IL-18, TNFA, and IFNG expressions” value was “dose-dependent reversal”.

Values taken from article PMC11191317, “PNSC928, a plant-derived compound, specifically disrupts CtBP2-p300 interaction and reduces inflammation in mice with acute respiratory distress syndrome” (Biology Direct, 2024).
